# Assay results reported in the supplement of paper PMC13380429.
# Experiments:
# Details in all cases: 72 h
# [1] = system: Vero E6; assay: drug sensitivity score (DSS) for viability; higher = more toxic; extreme values may be limits of the assay
# [2] = system: U2OS; assay: as above
# [3] = system: Caco-2; assay: as above
# [4] = system: Calu-3; assay: as above
# [5] = system: HepG2; assay: as above
# [6] = system: Vero E6; assay: cell viability relative to DMSO; higher = less toxic
# [7] = system: U2OS; assay: as above
# [8] = system: Caco-2; assay: as above
# [9] = system: Calu-3; assay: as above
# [10] = system: HepG2; assay: as above
# [11] = system: Vero E6; assay: relative viability EC50 (midpoint between 100% and the lowest measured viability); higher = less toxic
# [12] = system: U2OS; assay: as above
# [13] = system: Caco-2; assay: as above
# [14] = system: Calu-3; assay: as above
# [15] = system: HepG2; assay: as above
SMILES,drug sensitivity score [1],drug sensitivity score [2],drug sensitivity score [3],drug sensitivity score [4],drug sensitivity score [5],cell viability ([6]; 1 nM),cell viability ([6]; 10 nM),cell viability ([6]; 100 nM),cell viability ([6]; 1000 nM),cell viability ([6]; 10000 nM),cell viability ([7]; 1 nM),cell viability ([7]; 10 nM),cell viability ([7]; 100 nM),cell viability ([7]; 1000 nM),cell viability ([7]; 10000 nM),cell viability ([8]; 1 nM),cell viability ([8]; 10 nM),cell viability ([8]; 100 nM),cell viability ([8]; 1000 nM),cell viability ([8]; 10000 nM),cell viability ([9]; 1 nM),cell viability ([9]; 10 nM),cell viability ([9]; 100 nM),cell viability ([9]; 1000 nM),cell viability ([9]; 10000 nM),cell viability ([10]; 1 nM),cell viability ([10]; 10 nM),cell viability ([10]; 100 nM),cell viability ([10]; 1000 nM),cell viability ([10]; 10000 nM),relative viability EC50 [11],relative viability EC50 [12],relative viability EC50 [13],relative viability EC50 [14],relative viability EC50 [15]
CCNC(=O)CCC/C=C\C[C@@H]1[C@@H](/C=C/[C@@H](O)CCc2ccccc2)[C@H](O)C[C@@H]1O [bimatoprost],0,0,0,0,0,97.7%,105%,96.1%,100%,106%,102%,93.3%,103%,96.4%,107%,97.5%,89.8%,106%,92.2%,101%,113%,97.6%,101%,100%,101%,88.6%,93%,95.1%,107%,105%,> 10 µM,> 10 µM,> 10 µM,> 10 µM,> 10 µM
CCN[C@H]1CN(CCCOC)S(=O)(=O)c2sc(S(N)(=O)=O)cc21 [brinzolamide],0,0,0,0,0,94.4%,99.7%,96.2%,85.9%,102%,96.6%,95.4%,102%,106%,99.9%,89.1%,95.2%,99.3%,104%,106%,96.2%,91.8%,101%,112%,102%,100%,118%,101%,110%,112%,> 10 µM,> 10 µM,> 10 µM,> 10 µM,> 10 µM
C=CCN1C[C@H](C(=O)N(CCCN(C)C)C(=O)NCC)C[C@@H]2c3cccc4[nH]cc(c34)C[C@H]21 [cabergoline],0,0,4,0,0,103%,98%,88.9%,96.1%,95.7%,101%,100%,96.5%,101%,103%,108%,95.2%,83%,89%,89.5%,106%,99.7%,97.1%,107%,99.4%,89.3%,95.2%,106%,92.8%,90.7%,> 10 µM,> 10 µM,> 10 µM,> 10 µM,> 10 µM
C=C1CC[C@H](O)C/C1=C/C=C1\CCC[C@]2(C)[C@@H]([C@H](C)CCCC(C)(C)O)CC[C@@H]12 [calcifediol],0,0,0,0,0,98.9%,95%,98.1%,97.3%,97%,106%,97.5%,105%,98.1%,95%,107%,90.2%,107%,92.3%,91.8%,98.2%,91.4%,78.8%,103%,107%,92.6%,103%,97.1%,103%,101%,> 10 µM,> 10 µM,> 10 µM,> 10 µM,> 10 µM
CO/N=C(\C(=O)N[C@@H]1C(=O)N2C(C(=O)OCOC(=O)C(C)(C)C)=C(/C=C\c3scnc3C)CS[C@H]12)c1csc(N)n1 [cefditoren-pivoxil],0,0,0,0,0.2,94.7%,98.9%,94.2%,92.7%,91.9%,103%,108%,103%,96.6%,100%,104%,97.5%,105%,99.1%,90.9%,96.9%,105%,86.3%,101%,106%,91%,99.7%,97.3%,103%,84.2%,> 10 µM,> 10 µM,> 10 µM,> 10 µM,> 10 µM
CO[C@@]1(NC(=O)C2SC(=C(C(N)=O)C(=O)O)S2)C(=O)N2C(C(=O)O)=C(CSc3nnnn3C)CS[C@@H]21 (stereo not given in full) [cefotetan],0,0,0,0,0,105%,104%,103%,98.2%,99.9%,98.3%,99.6%,98.5%,99.8%,96.1%,92.4%,95.3%,93.6%,95.9%,101%,109%,94.1%,108%,105%,103%,108%,89.7%,99.1%,100%,103%,> 10 µM,> 10 µM,> 10 µM,> 10 µM,> 10 µM
CC(=O)OCC1=C(C(=O)O)N2C(=O)[C@@H](NC(=O)CSc3ccncc3)[C@H]2SC1 [cephapirin],0,0,0,0,0,95.6%,98%,95.6%,97.1%,102%,96.6%,99.6%,93.8%,94.6%,104%,93.9%,109%,94.8%,97.6%,96.1%,98.9%,92.3%,90.9%,101%,97.7%,104%,91.1%,102%,93.3%,103%,> 10 µM,> 10 µM,> 10 µM,> 10 µM,> 10 µM
